Bounds are passed on as bounds.

In one experiment the target is CDK2/Cyclin-A kinase complex (Homo sapiens, UniProt P24941). Nature of the experiment: CDK2 IMAP fluorescence polarization assay. Format: biochemical. The conditions noted are these: Table C; read-out: CDK2 IC50. The text has this: In order to test the CDK2 activity of the compounds of the invention, the CDK2 assay is a flourescence polarization assay, where the enzyme is a purified active CDK2/Cyclin-A kinase complex and the substrate is a synthesized peptide derived from Histone H1. This assay utilizes the IMAP technology from Molecular Devices. The active CDK2/Cyclin-A complex phosphorylates the peptide substrate, which is conjugated with the TAMRA tag. The phosphorylated site is then recognized by a metal containing molecule that interacts with the TAMRA tag to induce a high flourescence polarization. The compounds that inhibit the CDK2 kinase activity would inhibit the flourescence output of the assay.
On the technique in general: Fluorescence polarisation rises when a labelled molecule tumbles more slowly, as on binding a larger partner.
In the case of `CC1CN(C2CCCC2)c2nc(Nc3ccc(N4CCN(C)CC4)cc3)ncc21` (stereo not shown), the IC50 is > 10 µM.

Still in this experiment, the particulars now being: Table E; read-out: CDK2cyA IMAP/IC50 [umol l − 1].
`Cc1cn(C2CC2)c2nc(Nc3ccc(N4CCN(C)CC4)cc3)ncc12` [Example 270]: the IC50 was > 10 µM. Still for that read-out and setting: for `CCOC(=O)C(C(C)C)n1ccc2cnc(Nc3ccc(N4CCN(C(C)=O)CC4)cc3)nc21` (stereo not shown) [Example 223] the value was > 10 µM; for `CC(=O)N1CCN(c2ccc(Nc3ncc4c(C)cn(C5CCCCC5)c4n3)cc2)CC1` [Example 274], > 10 µM; for `CC(=O)N1CCN(c2ccc(Nc3ncc4ccn(C5CCCCC5=O)c4n3)cc2)CC1` (stereo not shown) [Example 226], > 10 µM. For the compound `CCC(CC)n1ccc2cnc(Nc3ccc(N4CCN(C(C)=O)CC4)cc3)nc21` [Example 201], the IC50 was < 10 µM. Still for that read-out and setting: for `CC(=O)N1CCN(c2ccc(Nc3ncc4ccn(C5CCCC5)c4n3)cc2)CC1` [Example 254] the value was < 1 µM.

On to `Cc1cn(-c2ccccn2)c2nc(Nc3ccc(N4CCNCC4)cn3)ncc12` [Example 320, (5-Methyl-7-pyridin-2-yl-7H-pyrrolo[2,3-d]pyrimidin-2-yl)-(5-piperazin-1-yl-pyridin-2-yl)-amine], for which the IC50 was > 10 µM. Still for that read-out and setting: as for `CC(=O)N1CCN(c2ccc(Nc3ncc4ccn(C5CCC(C)CC5)c4n3)cc2)CC1` (stereo not shown) [Example 236], the figure is < 1 µM; as for `CCC(C(N)=O)n1ccc2cnc(Nc3ccc(N4CCNCC4)cc3)nc21` (stereo not shown) [Example 234], > 10 µM.

Take `Cc1cn(C2CCCC2)c2nc(Nc3ccc(S(N)(=O)=O)cc3)ncc12` [Example 288]: the IC50 was < 1 µM. Same read-out and setting: as for `Cc1cn(C2CCCC2)c2nc(Nc3cccnc3)ncc12` [Example 300], the figure is < 1 µM; as for `CCC(CC)n1c(C(=O)N2CCCC2)cc2cnc(Nc3ccc(N4CCNCC4)cc3)nc21` [Example 337], > 10 µM.

Regarding `CC(C)c1cn(C2CCCC2)c2nc(Nc3ccc(N4CCNCC4)cn3)ncc12` [Example 440], the IC50 was > 10 µM. On the same count and under the same terms, for `Cc1cn(-c2nccs2)c2nc(Nc3ccc(N4CCNCC4)cn3)ncc12` [Example 321] the value was > 10 µM; for `CCC(C)n1ccc2cnc(Nc3ccc(N4CCN(C(C)=O)CC4)cc3)nc21` (stereo not shown) [Example 222], < 10 µM; for `Cc1cn(C2CCCC2)c2nc(Nc3ccc(N4CCNCC4)c(F)c3)ncc12` [Example 285], < 10 µM.

On to `CCC(CC)n1c(C(=O)OC)cc2cnc(Nc3ccc(N4CCN(C(C)=O)CC4)cc3)nc21` [Example 373, 2-[4-(4-Acetyl-piperazin-1-yl)-phenylamino]-7-(1-ethyl-propyl)-7H-pyrrolo[2,3-d]pyrimidine-6-carboxylic acid methyl ester], for which the IC50 was < 10 µM. Regarding `Cc1cn(-c2cccnc2)c2nc(Nc3ccc(N4CCNCC4)cc3)ncc12` [Example 322], the IC50 is > 10 µM. The same measure, in the same setting: for `CC(=O)N1CCN(c2ccc(Nc3ncc4ccn(C5CCOCC5)c4n3)cc2)CC1` [Example 228] the value was < 10 µM; for `CCCCNC(=O)c1cc2cnc(Nc3ccc(N4CCNCC4)cc3)nc2n1C(CC)CC` [Example 336], > 10 µM; for `CN(C)CC1CCC(n2ccc3cnc(Nc4ccc(N5CCNCC5)cc4)nc32)C1` (stereo not shown) [Example 249], < 10 µM. Take `c1cc(N2CCNCC2)ccc1Nc1ncc2ccn(C3CCOCC3)c2n1` [Example 235]: the IC50 is > 10 µM. With `CC(=O)N1CCN(c2ccc(Nc3ncc4ccn(C5CCCC(C)C5)c4n3)cc2)CC1` (stereo not shown) [Example 241], the IC50 was < 10 µM.

In the case of `CCC(C(=O)OC)n1ccc2cnc(Nc3ccc(N4CCN(C(C)=O)CC4)cc3)nc21` (stereo not shown) [Example 219], the IC50 is < 10 µM. Still for that read-out and setting: for `Cc1cn(C2CCCC2)c2nc(Nc3ccncc3)ncc12` [Example 298] the value was < 1 µM. Same read-out and setting: as for `CC(=O)c1c(C)c2cnc(Nc3ccc(N4CCNCC4)cn3)nc2n1C1CCOCC1` [Example 388], the figure is > 10 µM; as for `CC(=O)N1CCN(c2ccc(Nc3ncc4ccn(C5CCCC5)c4n3)nc2)CC1` [Example 252], > 10 µM.

These data come from patent US20120207763A1, “PYRROLOPYRIMIDINE COMPOUNDS AND THEIR USES” (ASTEX THERAPEUTICS LIMITED, priority 2006, published 2012).
